Measured values taken from patent US9604975B2, “Indolyl-pyridone derivatives having checkpoint kinase 1 inhibitory activity” (Vernalis (R&D) Ltd., priority 2009, dated 2017).
pEC50, pIC50: −log10 of the molar value.

Columns and labels:
HT29 cells = experiment: CHK1 Cellular Assay - Gemcitabine EC50 Assay; type: cell-based; details: for pEC50: HT29 cells, in the presence of gemcitabine at 10 nM, 72 hours, SRB staining, read-out: CHK1 Cellular Activity (EC50 range)
Protocol: The gemcitabine EC50 assay was developed as a rapid method for screening CHK1 inhibitors to determine their relative cell activity. This assay utilises a feature of the effect of CHK1 inhibitors on gemcitabine toxicity. In the absence of a CHK1 inhibitor, gemcitabine acts predominantly as an anti-metbolite and therefore induces very little cell death, even at high concentrations. This can be as high as 70-80% survival at concentrations in excess of 1 μM. However, in the presence of a CHK1 inhibitor, the mechanism of action of gemcitabine switches to a more classical cytotoxic mode of action. For example, the fraction of cells surviving can be reduced to around 30% and below. Concentrations of gemcitabine can be selected that in the absence of a CHK1 inhibitor, have no effect on cell survival but in the presence of a CHK1 inhibitor are highly cytotoxic. 10000 HT29 cells were plated per well of a 96 well plate and allowed to attach at 37° C. in a 5% CO2 humidified incubator for 18 hours. CHK1 inhibitors were then titrated in the presence of 10, 15 and 20 nM gemcitabine for 72 hours and the EC50 determined by staining with sulforhodamine B (SRB) and determining the absorbance at 540 nm.

CHK1 = molecular target: T1, CHK1 (Homo sapiens, UniProt O14757); experiment: CHK1 Enzyme Assay (phosphorylation of Chktide peptide, 33P-ATP filter assay); type: biochemical; details: 12.5 nM His-CHK1, 0.01 mM ATP, 40 minutes at 30° C.; read-out: CHK1 Enzyme Activity (IC50 range)
T1 construct: His; purchased Invitrogen
T1 sequence (O14757 1-476): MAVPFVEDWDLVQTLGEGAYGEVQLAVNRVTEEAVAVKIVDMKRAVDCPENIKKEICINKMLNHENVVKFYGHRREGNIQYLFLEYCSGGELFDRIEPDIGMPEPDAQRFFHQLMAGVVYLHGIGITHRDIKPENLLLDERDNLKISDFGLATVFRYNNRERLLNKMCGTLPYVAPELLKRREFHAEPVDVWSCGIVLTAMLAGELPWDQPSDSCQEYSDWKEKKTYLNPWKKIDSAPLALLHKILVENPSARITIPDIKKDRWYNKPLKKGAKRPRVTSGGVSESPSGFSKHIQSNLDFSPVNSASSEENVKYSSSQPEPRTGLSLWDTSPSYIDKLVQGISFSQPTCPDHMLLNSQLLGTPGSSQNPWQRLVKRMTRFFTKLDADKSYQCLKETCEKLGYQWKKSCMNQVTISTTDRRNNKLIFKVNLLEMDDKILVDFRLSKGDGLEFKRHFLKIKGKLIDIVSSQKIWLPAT
Procedure, shortened: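 His-CHK1 (12.5 nM) phosphorylating 14.8 μM Chktide with 0.01 mM ATP plus 33P-γ-ATP, in 50 mM Hepes-NaOH pH 7.5 with 0.1 mg/mL BSA. Incubated with inhibitor for 40 min at 30 °C. Stopped with phosphoric acid; phosphopeptide captured on filter and counted by scintillation.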

C[C@@H]1CN(Cc2ccc3[nH]c(-c4cc(NC(=O)c5cnn([C@H](C)c6ccccc6)c5)c[nH]c4=O)cc3c2)C[C@H](C)O1 [Example 166]
pEC50 (HT29 cells): > 7.00 | pIC50 (CHK1): > 7.00

CC1CCN(Cc2ccc3[nH]c(-c4cc(NC(=O)c5cnn(Cc6ccccc6)c5)c[nH]c4=O)cc3c2)CC1 [Example 78, 1-Benzyl-1H-pyrazole-4-carboxylic acid {5-[5-(4-methyl-piperidin-1-ylmethyl)-1H-indol-2-yl]-6-oxo-1,6-dihydro-pyridin-3-yl}-amide]
pEC50 (HT29 cells): > 7.00 | pIC50 (CHK1): > 7.00

CN(C)CC(C)(C)Oc1ccc2[nH]c(-c3cc(NC(=O)c4cnn(Cc5ccccc5)c4)c[nH]c3=O)cc2c1 [Example 179, 1-Benzyl-1H-pyrazole-4-carboxylic acid {5-[5-(2-dimethylamino-1,1-dimethyl-ethoxy)-1H-indol-2-yl]-6-oxo-1,6-dihydro-pyridin-3-yl}-amide]
pEC50 (HT29 cells): > 7.00 | pIC50 (CHK1): > 7.00

O=C(Nc1c[nH]c(=O)c(-c2cc3cc(CN4CCCCC4)ccc3[nH]2)c1)c1cnn(Cc2ccccc2)c1 [Example 52, 1-Benzyl-1H-pyrazole-4-carboxylic acid [6-oxo-5-(5-piperidin-1-ylmethyl-1H-indol-2-yl)-1,6-dihydro-pyridin-3-yl]-amide]
pEC50 (HT29 cells): > 7.00 | pIC50 (CHK1): > 7.00

C[C@@H]1CCCCN1Cc1ccc2[nH]c(-c3cc(NC(=O)c4cnn(Cc5ccccc5)c4)c[nH]c3=O)cc2c1 [Example 173, 1-Benzyl-1H-pyrazole-4-carboxylic acid {5-[5-((R)-2-methyl-piperidin-1-ylmethyl)-1H-indol-2-yl]-6-oxo-1,6-dihydro-pyridin-3-yl}-amide]
pEC50 (HT29 cells): > 7.00 | pIC50 (CHK1): > 7.00

O=C(Nc1c[nH]c(=O)c(-c2cc3cc(CN4CCC(F)CC4)ccc3[nH]2)c1)c1cnn(Cc2ccccc2)c1 [Example 49, 1-Benzyl-1H-pyrazole-4-carboxylic acid {3-[5-(4-fluoro-piperidin-1-ylmethyl)-1H-indol-2-yl]-6-oxo-1,6-dihydro-pyridin-3-yl}-amide]
pEC50 (HT29 cells): > 7.00 | pIC50 (CHK1): > 7.00

CC(c1ccccc1)n1cc(C(=O)Nc2c[nH]c(=O)c(-c3cc4cc(CN5CCC(F)CC5)ccc4[nH]3)c2)cn1 (stereo not shown) [Example 87, 1-(1-Phenyl-ethyl)-1H-pyrazole-4-carboxylic acid {5-[5-(4-fluoro-piperidin-1-ylmethyl)-1H-indol-2-yl]-6-oxo-1,6-dihydro-pyridin-3-yl}-amide]
pEC50 (HT29 cells): > 7.00 | pIC50 (CHK1): > 7.00

CC(C)(COc1ccc2[nH]c(-c3cc(NC(=O)c4cnn(Cc5ccccc5)c4)c[nH]c3=O)cc2c1)CN1CCCC1 [Example 180, 1-Benzyl-1H-pyrazole-4-carboxylic acid {5-[5-(2,2-dimethyl-3-pyrrolidin-1-yl-propoxy)-1H-indol-2-yl]-6-oxo-1,6-dihydro-pyridin-3-yl}-amide]
pEC50 (HT29 cells): > 7.00 | pIC50 (CHK1): > 7.00

C[C@@H]1CCC[C@H](C)N1Cc1ccc2[nH]c(-c3cc(NC(=O)c4cnn(Cc5ccccc5)c4)c[nH]c3=O)cc2c1 [Example 177, 1-Benzyl-1H-pyrazole-4-carboxylic acid {5-[5-(cis-2,6-dimethyl-piperidin-1-ylmethyl)-1H-indol-2-yl]-6-oxo-1,6-dihydro-pyridin-3-yl}-amide]
pEC50 (HT29 cells): > 7.00 | pIC50 (CHK1): > 7.00

C[C@H]1CCCCN1Cc1ccc2[nH]c(-c3cc(NC(=O)c4cnn(Cc5ccccc5)c4)c[nH]c3=O)cc2c1 [Example 171, 1-Benzyl-1H-pyrazole-4-carboxylic acid {5-[5-((S)-2-methyl-piperidin-1-ylmethyl)-1H-indol-2-yl]-6-oxo-1,6-dihydro-pyridin-3-yl}-amide]
pEC50 (HT29 cells): > 7.00 | pIC50 (CHK1): > 7.00

CCN(CC)CC1(COc2ccc3[nH]c(-c4cc(NC(=O)c5cnn(Cc6ccccc6)c5)c[nH]c4=O)cc3c2)CC1 [Example 186, 1-Benzyl-1H-pyrazole-4-carboxylic acid {5-[5-(1-diethylaminomethyl-cyclopropylmethoxy)-1H-indol-2-yl]-6-oxo-1,6-dihydro-pyridin-3-yl}-amide]
pEC50 (HT29 cells): > 7.00 | pIC50 (CHK1): > 7.00

Cc1ccc(Cn2cc(C(=O)Nc3c[nH]c(=O)c(-c4cc5cc(CN6CCCCC6)ccc5[nH]4)c3)cn2)cc1 [Example 38, 1-(4-Methyl-benzyl)-1H-pyrazole-4-carboxylic acid [6-oxo-5-(5-piperidin-1-ylmethyl-1H-indol-2-yl)-1,6-dihydro-pyridin-3-yl]-amide]
pEC50 (HT29 cells): 6.30 to 7.00 | pIC50 (CHK1): > 7.00

Nc1ccn([C@@H]2O[C@H](CO)[C@@H](O)C2(F)F)c(=O)n1 [gemcitabine, reference compound]
survival (HT29 cells; gemcitabine in the absence of a CHK1 inhibitor, concentrations in excess of 1 μM): 70-80%

C[C@@H]1CN(Cc2ccc3[nH]c(-c4cc(NC(=O)c5cnn(Cc6ccccc6)c5)c[nH]c4=O)cc3c2)C[C@H](C)O1 [Example 71, 1-Benzyl-1H-pyrazole-4-carboxylic acid {5-[5-(cis-2,6-dimethyl-morpholin-4-ylmethyl)-1H-indol-2-yl]-6-oxo-1,6-dihydro-pyridin-3-yl}-amide]
pEC50 (HT29 cells): > 7.00 | pIC50 (CHK1): > 7.00

CN(C)CC(C)(C)COc1ccc2[nH]c(-c3cc(NC(=O)c4cnn(Cc5ccccc5)c4)c[nH]c3=O)cc2c1 [Example 120, 1-Benzyl-1H-pyrazole-4-carboxylic acid {5-[5-(3-dimethylamino-2,2-dimethyl-propoxy)-1H-indol-2-yl]-6-oxo-1,6-dihydro-pyridin-3-yl}-amide]
pEC50 (HT29 cells): > 7.00 | pIC50 (CHK1): > 7.00

O=C(Nc1c[nH]c(=O)c(-c2cc3cc(CN4CCOCC4)ccc3[nH]2)c1)c1cnn(Cc2ccc(Cl)cc2)c1 [Example 67, 1-(4-Chloro-benzyl)-1H-pyrazole-4-carboxylic acid [5-(5-morpholin-4-ylmethyl-1H-indol-2-yl)-6-oxo-1,6-dihydro-pyridin-3-yl]-amide]
pIC50 (CHK1): > 7.00

O=C(Nc1cnn(Cc2ccc(Cl)cc2)c1)c1c[nH]c(=O)c(-c2cc3ccccc3[nH]2)c1 [Example 12, 5-(1H-Indol-2-yl)-6-oxo-1,6-dihydro-pyridine-3-carboxylic acid [1-(4-chloro-benzyl)-1H-pyrazol-4-yl]-amide]
pIC50 (CHK1): 6.30 to 7.00

Cc1cccc(Cn2cc(C(=O)Nc3c[nH]c(=O)c(-c4cc5ccccc5[nH]4)c3)cn2)c1 [Example 26, 1-(3-Methyl-benzyl)-1H-pyrazole-4-carboxylic acid [5-(1H-indol-2-yl)-6-oxo-1,6-dihydro-pyridin-3-yl]-amide]
pIC50 (CHK1): > 7.00

Cc1ccc(Cn2cc(C(=O)Nc3c[nH]c(=O)c(-c4cc5cc(CN6CCC(CO)CC6)ccc5[nH]4)c3)cn2)cc1 [Example 39, 1-(4-Methyl-benzyl)-1H-pyrazole-4-carboxylic acid {5-[5-(4-hydroxymethyl-piperidin-1-ylmethyl)-1H-indol-2-yl]-6-oxo-1,6-dihydro-pyridin-3-yl}-amide]
pIC50 (CHK1): > 7.00

O=C(Nc1c[nH]c(=O)c(-c2cc3cc(CN4CCCC(F)C4)ccc3[nH]2)c1)c1cnn(Cc2ccc(Cl)cc2)c1 (stereo not shown) [Example 63, 1-(4-Chloro-benzyl)-1H-pyrazole-4-carboxylic acid {5-[5-(3-fluoro-piperidin-1-ylmethyl)-1H-indol-2-yl]-6-oxo-1,6-dihydro-pyridin-3-yl}-amide]
pIC50 (CHK1): > 7.00

O=C(Nc1c[nH]c(=O)c(-c2cc3ccccc3[nH]2)c1)c1cnn(Cc2cccc(F)c2)c1 [Example 22, 1-(3-Fluoro-benzyl)-1H-pyrazole-4-carboxylic acid [5-(1H-indol-2-yl)-6-oxo-1,6-dihydro-pyridin-3-yl]-amide]
pIC50 (CHK1): > 7.00

CCc1cccc(Cn2cc(C(=O)Nc3c[nH]c(=O)c(-c4cc5cc(OCCN6CCCCC6)ccc5[nH]4)c3)cn2)c1 [Example 135, 1-(3-Ethyl-benzyl)-1H-pyrazole-4-carboxylic acid {6-oxo-5-[5-(2-piperidin-1-yl-ethoxy)-1H-indol-2-yl]-1,6-dihydro-pyridin-3-yl}-amide]
pIC50 (CHK1): > 7.00

O=C(Nc1c[nH]c(=O)c(-c2cc3cc(CN4CCCC4)ccc3[nH]2)c1)c1cnn(Cc2ccccc2)c1 [Example 50, 1-Benzyl-1H-pyrazole-4-carboxylic acid [6-oxo-5-(5-pyrrolidin-1-ylmethyl-1H-indol-2-yl)-1,6-dihydro-pyridin-3-yl]-amide]
pIC50 (CHK1): > 7.00
